The results in this text go back to patent publication US9120752B2, “Pyridine compounds as sodium channel blockers” (Purdue Pharma, L.P., priority 2010, dated 2015).

Usually IC50 stands for the point on the concentration scale where inhibition reaches its midpoint.

The subject of assay [1] is FCA-induced inflammation of the rat hind paw. Briefly: Freund's complete adjuvant (FCA) model of inflammatory pain, paw withdrawal threshold. It counts as in vivo. The procedure: Each experiment uses rats weighing between 200-260 g at the start of the experiment. The rats are group-housed and have free access to food and water at all times, except prior to oral administration of a test compound when food is removed for 16 hours before dosing. A control group acts as a comparison to rats treated with a compound of Formulae I-XIII. The control group is administered the carrier as used for the test compound. The volume of carrier administered to the control group is the same as the volume of carrier and test compound administered to the test group.
To assess the actions of the compounds of Formulae I-XIII on the treatment of inflammatory pain the Freund's complete adjuvant (“FCA”) model of inflammatory pain was used. […] 24 hour post injection, the animal was assessed for response to noxious mechanical stimuli by determining the paw withdrawal threshold (PWT), or to noxious thermal stimuli by determining the paw withdrawal latency (PWL), as described below. […] Responses to noxious mechanical or thermal stimuli were determined 1, 3, and 5 hours post administration (admin). […]
Sensitivity to noxious mechanical stimuli can be measured in animals using the paw pressure test to assess mechanical hyperalgesia. […] PWT is determined once for each rat at each time point. PWT can be measured only in the injured paw, or in both the injured and non-injured paw. […]

The target in another assay is human Nav1.7 (Homo sapiens (Human), UniProt Q15858). Briefly: FLIPR or FLIPR TETRA sodium dye assay with KCl and test article pre-incubation. It counts as cell-based. Conditions: sodium dye assay with KCl; recombinant Nav1.7/HEK293 cells; read-out: Nav1.7 IC50 (μM) ± SEM.
human Nav1.7, sequence (Q15858 other isoform, or with tags, fused parts or gaps): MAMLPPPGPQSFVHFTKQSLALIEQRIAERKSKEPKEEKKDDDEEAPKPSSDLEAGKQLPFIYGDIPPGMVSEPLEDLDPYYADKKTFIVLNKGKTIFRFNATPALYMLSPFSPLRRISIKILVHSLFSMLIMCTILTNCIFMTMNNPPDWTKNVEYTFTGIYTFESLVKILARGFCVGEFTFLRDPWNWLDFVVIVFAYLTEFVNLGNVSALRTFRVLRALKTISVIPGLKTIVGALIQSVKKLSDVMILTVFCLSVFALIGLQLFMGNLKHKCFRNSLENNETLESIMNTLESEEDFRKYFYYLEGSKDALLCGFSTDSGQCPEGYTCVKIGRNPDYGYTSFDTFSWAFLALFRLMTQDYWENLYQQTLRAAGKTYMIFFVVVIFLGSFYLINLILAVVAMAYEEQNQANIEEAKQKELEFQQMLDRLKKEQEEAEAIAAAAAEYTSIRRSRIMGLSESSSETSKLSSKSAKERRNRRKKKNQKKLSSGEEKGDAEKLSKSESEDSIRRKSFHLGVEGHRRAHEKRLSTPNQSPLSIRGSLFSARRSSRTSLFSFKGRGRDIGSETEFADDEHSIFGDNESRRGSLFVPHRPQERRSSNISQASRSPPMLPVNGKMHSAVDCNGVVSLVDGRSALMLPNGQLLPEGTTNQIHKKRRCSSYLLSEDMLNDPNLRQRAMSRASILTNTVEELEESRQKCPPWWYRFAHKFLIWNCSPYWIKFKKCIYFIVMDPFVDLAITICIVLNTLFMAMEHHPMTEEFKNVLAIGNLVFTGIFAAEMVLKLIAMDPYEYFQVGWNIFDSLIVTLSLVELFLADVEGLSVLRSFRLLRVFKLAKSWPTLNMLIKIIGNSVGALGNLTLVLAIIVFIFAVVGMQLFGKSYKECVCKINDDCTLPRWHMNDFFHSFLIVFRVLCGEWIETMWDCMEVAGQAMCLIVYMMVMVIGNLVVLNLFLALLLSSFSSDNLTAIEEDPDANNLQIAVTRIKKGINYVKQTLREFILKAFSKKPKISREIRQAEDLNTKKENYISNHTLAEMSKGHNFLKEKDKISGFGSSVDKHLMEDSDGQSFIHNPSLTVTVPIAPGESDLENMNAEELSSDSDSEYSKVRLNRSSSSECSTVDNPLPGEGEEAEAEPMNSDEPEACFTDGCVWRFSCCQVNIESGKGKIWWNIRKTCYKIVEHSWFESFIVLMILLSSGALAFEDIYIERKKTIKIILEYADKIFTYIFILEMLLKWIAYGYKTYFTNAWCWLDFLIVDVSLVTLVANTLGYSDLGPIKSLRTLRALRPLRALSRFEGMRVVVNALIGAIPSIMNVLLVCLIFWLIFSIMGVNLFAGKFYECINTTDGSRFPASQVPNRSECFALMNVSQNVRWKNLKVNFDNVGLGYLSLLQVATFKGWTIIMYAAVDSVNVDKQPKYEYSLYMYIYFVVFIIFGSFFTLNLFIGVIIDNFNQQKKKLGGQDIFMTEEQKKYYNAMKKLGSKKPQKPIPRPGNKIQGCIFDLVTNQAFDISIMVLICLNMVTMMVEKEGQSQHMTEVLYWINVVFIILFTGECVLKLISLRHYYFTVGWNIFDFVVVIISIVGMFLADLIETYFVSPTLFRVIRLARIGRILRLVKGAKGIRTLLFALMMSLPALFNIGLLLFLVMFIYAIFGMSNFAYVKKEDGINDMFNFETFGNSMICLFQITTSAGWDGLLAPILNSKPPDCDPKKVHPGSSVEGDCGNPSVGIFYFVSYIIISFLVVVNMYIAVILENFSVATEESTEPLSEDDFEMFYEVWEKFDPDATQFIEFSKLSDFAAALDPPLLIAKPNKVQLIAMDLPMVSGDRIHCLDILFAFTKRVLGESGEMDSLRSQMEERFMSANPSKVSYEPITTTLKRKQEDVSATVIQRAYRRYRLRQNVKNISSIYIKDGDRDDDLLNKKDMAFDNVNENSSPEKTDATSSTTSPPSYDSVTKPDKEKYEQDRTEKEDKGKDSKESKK

Regarding `NC(=O)[C@H](CO)NC(=O)c1cccc(-c2ccc(Oc3ccc(F)cc3)cc2)n1` [Compound 47, 6-[4-(4-fluoro-phenoxy)-phenyl]-pyridine-2-carboxylic acid ((S)-1-carbamoyl-2-hydroxy-ethyl)-amide], the “increase in PWT (paw withdrawal threshold)” value was “statistically significant increase” in assay [1] (10 mg/kg, oral (PO), 3 h post administration); “statistically significant increase” in assay [1] (30 mg/kg, oral (PO), 1, 3 and 5 h post administration). In addition, on human Nav1.7, the IC50 amounted to 1.53 ± 0.33 µM.
As to `NC(=O)[C@H](Cc1c[nH]cn1)NC(=O)c1cccc(-c2ccc(Oc3ccc(F)cc3)cc2)n1` [Compound 49, 6-[4-(4-fluoro-phenoxy)-phenyl]-pyridine-2-carboxylic acid [(S)-1-carbamoyl-2-(1H-imidazol-4-yl)-ethyl]-amide], at human Nav1.7, the half-inhibitory concentration (IC50) is 0.33 ± 0.02 µM.
Same read-out and setting: in the case of `NC(=O)[C@H](Cc1cccnc1)NC(=O)c1cccc(-c2ccc(Oc3ccc(F)cc3)cc2)n1` [Compound 45, (S)—N-(1-amino-1-oxo-3-(pyridin-3-yl)propan-2-yl)-6-(4-(4-fluorophenoxy)phenyl)picolinamide] it was 0.21 ± 0.04 µM; in that of `N#Cc1cccc(S(=O)(=O)N2CCN(C(=O)c3cccc(-c4ccc(F)cc4)n3)CC2)c1` [Compound 56, 3-((4-(6-(4-fluorophenyl)picolinoyl)piperazin-1-yl)sulfonyl)benzonitrile], 6.81 ± 0.57 µM.
